For test [1], the target named is T1, Nam-ACR-16 (Necator americanus, UniProt A0A7M1S0Z8).
T1 sequence (A0A7M1S0Z8 22-498): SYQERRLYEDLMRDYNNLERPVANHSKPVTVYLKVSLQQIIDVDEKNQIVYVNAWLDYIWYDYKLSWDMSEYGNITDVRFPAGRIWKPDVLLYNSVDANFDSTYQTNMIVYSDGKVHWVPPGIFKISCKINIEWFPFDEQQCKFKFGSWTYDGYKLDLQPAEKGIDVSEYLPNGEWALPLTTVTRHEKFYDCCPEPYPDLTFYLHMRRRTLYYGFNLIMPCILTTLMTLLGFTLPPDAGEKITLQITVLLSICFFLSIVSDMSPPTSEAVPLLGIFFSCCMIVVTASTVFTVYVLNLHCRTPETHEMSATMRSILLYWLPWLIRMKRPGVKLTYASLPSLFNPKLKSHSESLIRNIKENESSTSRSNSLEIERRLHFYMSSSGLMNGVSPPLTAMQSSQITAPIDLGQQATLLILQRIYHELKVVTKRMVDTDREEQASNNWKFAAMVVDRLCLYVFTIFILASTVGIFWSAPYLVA
The test is described as follows: two-electrode voltage clamp in Xenopus oocytes, agonist concentration-response. Set-up: full-length homopentameric receptor, co-expressed with Hco-RIC-3 in Xenopus laevis oocytes. Type of test: cell-based.

The target of test [2] is T1, Nam-ACR-16. The test is described as follows: two-electrode voltage clamp in Xenopus oocytes, agonist concentration-response (weak partial agonist). Format: cell-based. Set-up: full-length homopentameric receptor, co-expressed with Hco-RIC-3 in Xenopus laevis oocytes.
Test [3] concerns the target T2, Ace-ACR-16 (Ancylostoma ceylanicum, UniProt A0A7M1S071).
T2 sequence (A0A7M1S071 22-498): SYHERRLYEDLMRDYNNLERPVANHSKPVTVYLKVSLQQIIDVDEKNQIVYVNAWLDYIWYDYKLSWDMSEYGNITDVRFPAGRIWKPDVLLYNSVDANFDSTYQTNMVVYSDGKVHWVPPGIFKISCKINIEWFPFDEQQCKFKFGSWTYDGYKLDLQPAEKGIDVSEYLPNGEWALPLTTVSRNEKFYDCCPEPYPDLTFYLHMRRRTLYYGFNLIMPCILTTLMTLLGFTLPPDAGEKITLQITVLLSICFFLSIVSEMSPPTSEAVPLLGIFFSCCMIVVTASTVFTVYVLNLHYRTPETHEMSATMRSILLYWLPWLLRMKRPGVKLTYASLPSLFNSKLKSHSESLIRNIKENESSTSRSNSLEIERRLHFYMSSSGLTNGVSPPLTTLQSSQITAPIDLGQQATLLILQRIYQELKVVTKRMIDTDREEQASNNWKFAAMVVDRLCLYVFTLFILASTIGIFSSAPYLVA
The test is described as follows: two-electrode voltage clamp in Xenopus oocytes, agonist concentration-response (full agonist). Type of test: cell-based. Set-up: full-length homopentameric receptor, co-expressed with Hco-RIC-3 in Xenopus laevis oocytes.

In test [4] the target is T2, Ace-ACR-16. As to the kind of experiment: cell-based. Conditions: read-out: % inhibition at 500 μM.
Test [5] deals with T1, Nam-ACR-16. As to the kind of experiment: cell-based. Conditions: read-out: % inhibition at 500 μM.
Test [6] deals with T2, Ace-ACR-16. As to the kind of experiment: cell-based. Set-up: full-length homopentameric receptor, co-expressed with Hco-RIC-3 in Xenopus laevis oocytes. Conditions: read-out: % maximal acetylcholine response.

In the case of `CC(=O)OCC[N+](C)(C)C` [acetylcholine], the midpoint of the response in test [1], the EC50, lay at 170 ± 19.2 µM.
With `CN1CCC[C@H]1c1cccnc1` [nicotine], the results for the EC50 in test [2] and in test [3] were 598 ± 59.1 µM and 24.4 ± 2.89 µM, respectively.
In the case of `c1ccc([C@H]2CN3CCSC3=N2)cc1` [levamisole], the inhibition at 500 µM worked out at 65.1 ± 14.3% in test [4] and 79.5 ± 7.7% in test [5].
Take `CN1CCCN=C1/C=C/c1cccc(O)c1` [oxantel]: the Emax in test [6] was 15.6 ± 9.6%.
As for `CN1CCCN=C1/C=C/c1cccs1` [pyrantel], in test [6], the Emax is 12.5 ± 7.5%.

Source of the values: publication PMC7725692 (Frontiers in Molecular Neuroscience, 2020).
